Patent publication US20250197387A1, “BCL-XL DEGRADERS AND USES THEREOF” (Kymera Therapeutics, Inc., priority 2021, published 2025)

How the values were obtained:
Type in all cases: cell-based
BCL-XL [1] = target: T1, BCL-XL (Homo sapiens, UniProt Q07817); test: BCL-XL degradation assay, western blot in MOLT-4 cells, 16 h; conditions: western blot, MOLT-4 cells, 16 h; for Dmax: read-out: Bcl-xL WB in MOLT-4 degradation 16 h: Average Dmax %; for DC50: read-out: Bcl-xL WB in MOLT-4 degradation 16 h: Mean external-Abs DC50
T1 construct: endogenous in cells; host or cells: MOLT-4
T1 sequence (Q07817 whole entry): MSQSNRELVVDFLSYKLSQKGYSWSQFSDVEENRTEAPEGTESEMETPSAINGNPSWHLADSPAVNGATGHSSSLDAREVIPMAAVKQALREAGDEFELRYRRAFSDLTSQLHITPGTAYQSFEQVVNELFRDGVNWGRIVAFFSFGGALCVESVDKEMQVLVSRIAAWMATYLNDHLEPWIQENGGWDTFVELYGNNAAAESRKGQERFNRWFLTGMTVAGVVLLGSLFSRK
Outline: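 Infrared-imaged western blots quantified BCL-xL (normalised against beta-actin/GAPDH) after 16 hr, 37° C exposure of MOLT-4 cells to 0.02-10 μM compound; results given as DC50 and Dmax % bins.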

MOLT-4 cells = test: CTG (CellTiter-Glo) cell viability assay, MOLT-4; conditions: Homo sapiens, MOLT-4, 72 h, 3 day incubation, read-out: CTG Cell Viability Assay - MOLT-4 3 day: Average external-IC50
Protocol: Compound-mediated viability effect on MOLT-4 and Caki-2 was quantitatively determined using the CellTiter-Glo® Luminescent Cell Viability Assay kit from Promega (Catalog number G7570) following manufacturer's recommended procedures. Briefly, MOLT-4 and Caki-2 cells were seeded into 384 well plates (Grenier Bio-One, Catalog number 781080) with a density of 10,000 cells per well. Compounds were then added to the assay plate with final top concentration of 10 μM and 1:3 dilution series with total of 9 doses. The final DMSO concentration is normalized to 0.2%. The assay plates were incubated at 37° C., for 3 days under 5% CO2. Then the assay plate was equilibrated at room temperature for 10 minutes. To determine cell viability, 30 uL CellTiter Glo reagent was added to each well and the assay plate was centrifuged at 1000 rpm for 30 second, incubated at room temperature for 10 min, and analyzed by detecting the luminescence using a multimode plate reader (EnVision 2105, PerkinElmer). The data was then analyzed by software Prism 7.0 from GraphPad and the dose response curves are fit using a three-parameter logistic equation to calculate IC50.
The letter codes for MOLT-4 IC50 include: A (<0.1 μM); B (0.1-1.0 μM); C (>1.0-3.0 μM); and D (>3.0 μM). The letter codes for Caki-2 IC50 include: A (<0.1 μM); B (0.1-1.0 μM); C (>1.0-10.0 μM); and D (>10.0 μM).

BCL-XL [2] = target: T1, BCL-XL; test: Bcl-xL ELISA degradation in MOLT-4 cells, 6 h
Protocol: The letter codes for BCL-XL DC50 include: A (<0.01 μM); B (0.01-0.1 μM); C (>[…]); D (>0.5-1.0 μM); and E (>1.0 μM). The letter codes for Dmax % include A (>75%); B (50 to 75%); C (<50%).

Row | Structure (SMILES) | Dmax (BCL-XL [1]) | DC50 (BCL-XL [1]) | IC50 (MOLT-4 cells) | Dmax (BCL-XL [2]) | DC50 (BCL-XL [2]; read-out: Bcl-xL ELISA in MOLT-4 degradation 6 h: Mean external-Abs DC50)
1 | Cc1ncsc1-c1ccc([C@H](C)NC(=O)[C@@H]2C[C@@H](O)CN2C(=O)[C@@H](NC(=O)CCCC(=O)NCCOc2ccc(C(=O)Nc3nc4ccccc4s3)c3c2CCN(c2ccc(-c4cnn(CC5CCCCC5)c4C)c(C(=O)O)n2)C3)C(C)(C)C)cc1 [I-43] | 50 to 75% | 100 to 500 nM | 100 to 1000 nM |  | 
2 | Cc1ncsc1-c1ccc(CNC(=O)[C@@H]2C[C@@H](O)CN2C(=O)[C@@H](NC(=O)C2(F)CC2)C(C)(C)C)c(OCCCCCC(=O)NCCOc2ccc(C(=O)Nc3nc4ccccc4s3)c3c2CCN(c2ccc(-c4cnn(CC5CCCCC5)c4C)c(C(=O)O)n2)C3)c1 [I-47] | < 50% | > 1000 nM | > 3000 nM |  | 
3 | Cc1ncsc1-c1ccc([C@H](C)NC(=O)[C@@H]2C[C@@H](O)CN2C(=O)[C@@H](NC(=O)CCCCCC(=O)N2CCN(CC[C@H](CSc3ccccc3)Nc3ccc(S(=O)(=O)NC(=O)c4csc(N5CCc6cccc(C(=O)Nc7nc8ccccc8s7)c6C5)n4)cc3S(=O)(=O)C(F)(F)F)CC2)C(C)(C)C)cc1 [I-108] | > 75% | 10 to 100 nM | 1000 to 3000 nM |  | 
4 | Cc1ncsc1-c1ccc(CNC(=O)[C@@H]2CC(O)CN2C(=O)[C@@H](NC(=O)C2(F)CC2)C(C)(C)C)c(OCCCCCCCCS(=O)(=O)NC(=O)c2nc(N3CCc4cccc(C(=O)Nc5nc6ccccc6s5)c4C3)ccc2-c2cnn(CC34CC5CC(CC(C5)C3)C4)c2C)c1 (stereo partly drawn) [I-122] | > 75% | < 10 nM | < 100 nM |  | 
5 | Cc1cc([C@H](C(=O)N2C[C@H](O)C[C@H]2C(=O)NCc2ccc(-c3scnc3C)cc2OCC(=O)N2CCN(CC[C@H](CSc3ccccc3)Nc3ccc(S(=O)(=O)NC(=O)c4ccc(N5CCN(CC6=C(c7ccc(Cl)cc7)CCC(C)(C)C6)CC5)cc4)cc3S(=O)(=O)C(F)(F)F)CC2)C(C)C)on1 [I-134] | < 50% | > 1000 nM | > 3000 nM |  | 
6 | Cc1ncsc1-c1ccc(CNC(=O)[C@@H]2C[C@@H](O)CN2C(=O)[C@@H](NC(=O)C2(F)CC2)C(C)(C)C)c(OCC2CN(C3CCC(NC(=O)c4nc(N5CCc6cccc(C(=O)Nc7nc8ccccc8s7)c6C5)ccc4-c4cnn(CC5CCCCC5)c4C)CC3)C2)c1 (stereo partly drawn) [I-216] |  |  | 1000 to 3000 nM | < 50% | > 1000 nM

Other lines, results leading:

Row | Dmax (BCL-XL [1]) | DC50 (BCL-XL [1]) | IC50 (MOLT-4 cells) | Dmax (BCL-XL [2]) | DC50 (BCL-XL [2]; read-out: Bcl-xL ELISA in MOLT-4 degradation 6 h: Mean external-Abs DC50) | Structure (SMILES)
7 | > 75% | 10 to 100 nM | 1000 to 3000 nM |  |  | Cc1ncsc1-c1ccc([C@H](C)NC(=O)[C@@H]2C[C@@H](O)CN2C(=O)[C@@H](NC(=O)CCCCCCCC(=O)NCCOc2ccc(C(=O)Nc3nc4ccccc4s3)c3c2CCN(c2ccc(-c4cnn(CC5CCCCC5)c4C)c(C(=O)O)n2)C3)C(C)(C)C)cc1 [I-45]
8 | 50 to 75% | 100 to 500 nM | 1000 to 3000 nM |  |  | Cc1ncsc1-c1ccc(CNC(=O)[C@@H]2C[C@@H](O)CN2C(=O)[C@@H](NC(=O)C2(F)CC2)C(C)(C)C)c(OCCCC(=O)NCCOc2ccc(C(=O)Nc3nc4ccccc4s3)c3c2CCN(c2ccc(-c4cnn(CC5CCCCC5)c4C)c(C(=O)O)n2)C3)c1 [I-46]
9 | 50 to 75% | 100 to 500 nM | 100 to 1000 nM |  |  | Cc1ncsc1-c1ccc(CNC(=O)[C@@H]2C[C@@H](O)CN2C(=O)[C@@H](NC(=O)C2(F)CC2)C(C)(C)C)c(OCCCCCCCC(=O)NCCOc2ccc(C(=O)Nc3nc4ccccc4s3)c3c2CCN(c2ccc(-c4cnn(CC5CCCCC5)c4C)c(C(=O)O)n2)C3)c1 [I-48]
10 | > 75% | 10 to 100 nM | < 100 nM |  |  | C#Cc1ccc([C@H](CO)NC(=O)[C@@H]2C[C@@H](O)CN2C(=O)[C@@H](NC(=O)CCCCCC(=O)N2CCN(CC[C@H](CSc3ccccc3)Nc3ccc(S(=O)(=O)NC(=O)c4ccc(N5CCN(CC6=C(c7ccc(Cl)cc7)CCC(C)(C)C6)CC5)cc4)cc3S(=O)(=O)C(F)(F)F)CC2)C(C)(C)C)cc1 [I-116]
11 | > 75% | 10 to 100 nM | 1000 to 3000 nM |  |  | Cc1ncsc1-c1ccc(CNC(=O)[C@@H]2C[C@@H](O)CN2C(=O)[C@@H](NC(=O)C2(C#N)CC2)C(C)(C)C)c(OCC(=O)N2CCN(CC[C@H](CSc3ccccc3)Nc3ccc(S(=O)(=O)NC(=O)c4ccc(N5CCN(CC6=C(c7ccc(Cl)cc7)CCC(C)(C)C6)CC5)cc4)cc3S(=O)(=O)C(F)(F)F)CC2)c1 [I-133]
